Test results taken from US20130059783A1, “COMPOSITIONS AND METHODS FOR EXPANDING BFU-E CELLS” (priority 2010, published 2013).

Tested on: mRNA expression in BFU-E cells
Assay: mRNA-Seq of BFU-E cells cultured 4 hours with or without Dex (Table S3)
Assay type: cell-based, mouse
Conditions: for Expression level log2((100 nM DEX)* (0 nM DEX)) / Expression of mRNA in BFU-E after 4 h 100 nM DEX (RPKM) / Expression change log2 ((100 nM DEX)/(0 nM DEX))2 / Expression change log2 ((100 nM DEX)/(0 nM DEX)): BFU-E, 4 h; for Expression change log2 ((100 nM DEX)/(0 nM DEX)): 100 nM vs 0 nM DEX
Description: FIGS. 2A-2B. The effect of glucocorticoids on miRNA and mRNA expression in BFU-E cells determined by next generation sequencing. […] Both mRNAs and miRNAs were subjected to Illumina deep sequencing. […] (B) A plot similar to that in A for expression of individual mRNAs. mRNA expression was normalized using the RPKM method, which determines the relative expression of each gene to all expressed genes by giving each gene an RPKM count (number of uniquely aligning reads per kb exon per million total reads). […]
To minimize the risk of false positive GC target genes we chose to compare only highly expressed genes (≈10,000 genes with a multiplied RPKM count >4) (Mortazavi et al., 2008).
Samples for Paired-End mRNA-Seq were prepared using the Solexa kit according to the manufacturer's instructions with the exception that we extracted 300 bp bands, before and after the PCR step (Illumina). Images acquired from the Solexa sequencer were processed through the bundled Solexa image extraction pipeline version 1.4. mRNA-Seq reads were aligned to mouse NCBI build 37 (mm9) using ELAND, Briefly, the first 32 bases of a read were used as a seed. Each matched seed was then extended up to 36 bases and scored to break any ties between multi-matches. For mRNA expression counts, unique reads in the genome that landed within any exons of NCBI gene models (v37.1) were counted. The counts were normalized by the mRNA length to get the final RPKM values (i.e. reads per KB per million reads).

SMILES: C[C@@H]1C[C@H]2[C@@H]3CCC4=CC(=O)C=C[C@]4(C)[C@@]3(F)[C@@H](O)C[C@]2(C)[C@@]1(O)C(=O)CO [Dex, dexamethasone]
- Expression level log2((100 nM DEX)* (0 nM DEX)) (gene Kit): 12.13
- Expression of mRNA in BFU-E after 4 h 100 nM DEX (RPKM) (gene Kit): 97.02 RPKM
- Expression level log2((100 nM DEX)* (0 nM DEX)) (gene Klf9): 4.86
- Expression of mRNA in BFU-E after 4 h 100 nM DEX (RPKM) (gene Klf9): 8.07 RPKM
- Expression change log2 ((100 nM DEX)/(0 nM DEX))2 (gene Klf13): 1.37
- Expression level log2((100 nM DEX)* (0 nM DEX)) (gene Klf13): 8.41
- Expression of mRNA in BFU-E after 4 h 100 nM DEX (RPKM) (gene Klf13): 29.57 RPKM
- Expression of mRNA in BFU-E after 4 h 100 nM DEX (RPKM) (gene Lama5): 3.90 RPKM
- Expression change log2 ((100 nM DEX)/(0 nM DEX))2 (gene Lrfn1): 1.05
- Expression level log2((100 nM DEX)* (0 nM DEX)) (gene Lrfn1): 2.45
- Expression of mRNA in BFU-E after 4 h 100 nM DEX (RPKM) (gene Lrfn1): 3.37 RPKM
- Expression of mRNA in BFU-E after 4 h 100 nM DEX (RPKM) (gene Maff): 6.11 RPKM
- Expression change log2 ((100 nM DEX)/(0 nM DEX)) (gene Maff): 2.58
- Expression level log2((100 nM DEX)* (0 nM DEX)) (gene Man2a2): 9.07
- Expression of mRNA in BFU-E after 4 h 100 nM DEX (RPKM) (gene Man2a2): 35.22 RPKM
- Expression level log2((100 nM DEX)* (0 nM DEX)) (gene Mobkl2c): 5.14
- Expression of mRNA in BFU-E after 4 h 100 nM DEX (RPKM) (gene Mobkl2c): 8.65 RPKM
- Expression of mRNA in BFU-E after 4 h 100 nM DEX (RPKM) (gene Mt2): 1306.42 RPKM
- Expression change log2 ((100 nM DEX)/(0 nM DEX))2 (gene Nags): 1.02
- Expression level log2((100 nM DEX)* (0 nM DEX)) (gene Nags): 2.04
- Expression of mRNA in BFU-E after 4 h 100 nM DEX (RPKM) (gene Nags): 2.88 RPKM
- Expression of mRNA in BFU-E after 4 h 100 nM DEX (RPKM) (gene Ncoa7): 7.54 RPKM
- Expression change log2 ((100 nM DEX)/(0 nM DEX))2 (gene Nfkbia): 1.36
- Expression level log2((100 nM DEX)* (0 nM DEX)) (gene Nfkbia): 4.55
- Expression of mRNA in BFU-E after 4 h 100 nM DEX (RPKM) (gene Nfkbia): 7.75 RPKM
- Expression of mRNA in BFU-E after 4 h 100 nM DEX (RPKM) (gene Nhej1): 4.51 RPKM
- Expression level log2((100 nM DEX)* (0 nM DEX)) (gene Nrgn): 7.68
- Expression of mRNA in BFU-E after 4 h 100 nM DEX (RPKM) (gene Nrgn): 21.01 RPKM
- Expression of mRNA in BFU-E after 4 h 100 nM DEX (RPKM) (gene Per1): 23.34 RPKM
- Expression change log2 ((100 nM DEX)/(0 nM DEX)) (gene Per1): 2.30
- Expression of mRNA in BFU-E after 4 h 100 nM DEX (RPKM) (gene Pex11a): 5.87 RPKM
- Expression of mRNA in BFU-E after 4 h 100 nM DEX (RPKM) (gene Pfkfb4): 12.25 RPKM
- Expression change log2 ((100 nM DEX)/(0 nM DEX)) (gene Pfkfb4): 2.47
- Expression level log2((100 nM DEX)* (0 nM DEX)) (gene Pld6): 2.64
- Expression of mRNA in BFU-E after 4 h 100 nM DEX (RPKM) (gene Pld6): 3.65 RPKM
- Expression of mRNA in BFU-E after 4 h 100 nM DEX (RPKM) (gene Plk3): 5.75 RPKM
- Expression change log2 ((100 nM DEX)/(0 nM DEX)) (gene Plk3): 1.76
- Expression level log2((100 nM DEX)* (0 nM DEX)) (gene Polr3gl): 3.89
- Expression of mRNA in BFU-E after 4 h 100 nM DEX (RPKM) (gene Polr3gl): 5.93 RPKM
- Expression level log2((100 nM DEX)* (0 nM DEX)) (gene Rab3il1): 3.44
- Expression of mRNA in BFU-E after 4 h 100 nM DEX (RPKM) (gene Rab3il1): 4.94 RPKM
- Expression level log2((100 nM DEX)* (0 nM DEX)) (gene Rapgef2): 2.18
- Expression of mRNA in BFU-E after 4 h 100 nM DEX (RPKM) (gene Rapgef2): 3.28 RPKM
- Expression of mRNA in BFU-E after 4 h 100 nM DEX (RPKM) (gene Rcsd1): 8.11 RPKM
- Expression change log2 ((100 nM DEX)/(0 nM DEX)) (gene Rcsd1): 1.68
- Expression level log2((100 nM DEX)* (0 nM DEX)) (gene Rps6ka1): 9.31
- Expression of mRNA in BFU-E after 4 h 100 nM DEX (RPKM) (gene Rps6ka1): 39.02 RPKM
- Expression of mRNA in BFU-E after 4 h 100 nM DEX (RPKM) (gene Serpina3g): 36.06 RPKM
- Expression change log2 ((100 nM DEX)/(0 nM DEX)) (gene Serpina3g): 2.06
- Expression of mRNA in BFU-E after 4 h 100 nM DEX (RPKM) (gene Slc30a10): 7.11 RPKM
- Expression level log2((100 nM DEX)* (0 nM DEX)) (gene Slc44a2): 9.19
- Expression of mRNA in BFU-E after 4 h 100 nM DEX (RPKM) (gene Slc44a2): 35.91 RPKM
- Expression of mRNA in BFU-E after 4 h 100 nM DEX (RPKM) (gene Socs1): 34.03 RPKM
- Expression change log2 ((100 nM DEX)/(0 nM DEX)) (gene Socs1): 2.74
- Expression level log2((100 nM DEX)* (0 nM DEX)) (gene Spry1): 5.36
- Expression of mRNA in BFU-E after 4 h 100 nM DEX (RPKM) (gene Spry1): 9.31 RPKM
- Expression of mRNA in BFU-E after 4 h 100 nM DEX (RPKM) (gene St3gal2): 23.29 RPKM
- Expression of mRNA in BFU-E after 4 h 100 nM DEX (RPKM) (gene Syne1): 7.36 RPKM
- Expression change log2 ((100 nM DEX)/(0 nM DEX))2 (gene Tle4): 1.29
- Expression level log2((100 nM DEX)* (0 nM DEX)) (gene Tle4): 6.76
- Expression of mRNA in BFU-E after 4 h 100 nM DEX (RPKM) (gene Tle4): 16.27 RPKM
- Expression of mRNA in BFU-E after 4 h 100 nM DEX (RPKM) (gene Tns1): 20.01 RPKM
- Expression of mRNA in BFU-E after 4 h 100 nM DEX (RPKM) (gene Tph1): 5.51 RPKM
- Expression level log2((100 nM DEX)* (0 nM DEX)) (gene Trib2): 4.11
- Expression of mRNA in BFU-E after 4 h 100 nM DEX (RPKM) (gene Trib2): 6.12 RPKM
- Expression of mRNA in BFU-E after 4 h 100 nM DEX (RPKM) (gene Tsc22d3): 19.83 RPKM
- Expression level log2((100 nM DEX)* (0 nM DEX)) (gene Txnip): 8.13
- Expression of mRNA in BFU-E after 4 h 100 nM DEX (RPKM) (gene Txnip): 24.97 RPKM
- Expression of mRNA in BFU-E after 4 h 100 nM DEX (RPKM) (gene Wdr21): 48.20 RPKM
- Expression change log2 ((100 nM DEX)/(0 nM DEX))2 (gene Wdr60): 1.05
- Expression level log2((100 nM DEX)* (0 nM DEX)) (gene Wdr60): 5.00
- Expression of mRNA in BFU-E after 4 h 100 nM DEX (RPKM) (gene Wdr60): 8.14 RPKM
- Expression change log2 ((100 nM DEX)/(0 nM DEX))2 (gene Zbtb16): 1.30
- Expression level log2((100 nM DEX)* (0 nM DEX)) (gene Zbtb16): 3.93
- Expression of mRNA in BFU-E after 4 h 100 nM DEX (RPKM) (gene Zbtb16): 6.14 RPKM
- Expression of mRNA in BFU-E after 4 h 100 nM DEX (RPKM) (gene Zfp1): 5.67 RPKM
- Expression change log2 ((100 nM DEX)/(0 nM DEX)) (gene Zfp1): 2.96
- Expression level log2((100 nM DEX)* (0 nM DEX)) (gene Zfp36l2): 13.36
- Expression of mRNA in BFU-E after 4 h 100 nM DEX (RPKM) (gene Zfp36l2): 163.74 RPKM
- Genes upregulated 50% or more (multiplied RPKM count greater than zero): 395 genes
